US20110190398A1, “USE OF IMMUNOS[…] IN A NEW INDICATION” (NOVARTIS AG, priority 2008, published 2011)
Counter-ions that a name gives are not always drawn.

What was measured:
Type in all cases: in vivo, Lewis rats
[1] = test system: Experimental Autoimmune Neuritis; test: EAN clinical score, suppressive treatment; settings: EAN rats, 1 mg/kg intragastrically once daily from immunization until Day 22; scale 0-10; control maximal 4.80±0.51 at Day 13
Protocol: (§1) Male Lewis rats (8-10 weeks, 180-200 g, Elevage-Janvier, France) were housed under a 12 h light-12 h dark cycle and with free access to food and water. All animal procedures were in accordance with a protocol approved by the local Administration District Official Committee. All efforts were made to minimize the number of animals and their suffering.
(§2) For EAN induction, rats were immunized by subcutaneous injection into both hind footpads with 100 μL of an inoculum containing 100 μg of synthetic neuritogenic P2 57-81 peptide (GeneScript Corporation, Scotch Plains, N.J., USA). The peptide was dissolved in phosphate buffered saline (PBS) (2 mg/mL) and then emulsified with an equal volume of complete Freund's adjuvant (CFA) containing 2 mg/mL mycobacterium tuberculosis to get a final concentration of 1 mg/mL.
EAN clinical scores were evaluated every day as follows: 0=normal, 1=reduced tonus of tail, 2=limp tail, impaired righting, 3=absent righting, 4=gait ataxia, 5=mild paresis of the hind limbs, 6=moderate paraparesis, 7=severe paraparesis or paraplegia of the hind limbs, 8=tetraparesis, 9=moribund, and 10=death (Zhang et al., 2009A).
Compound A was tested at a concentration of 1 mg/kg (suspended in a water vehicle). The compound A suspension was intragastrically administrated immediately after induction and then once daily until Day 22 (5 rats per group). […]

[2] = test system: Experimental Autoimmune Neuritis; test: Body weight course in EAN rats; settings: 1 mg/kg once daily, control showed significant weight loss Day 10 to 18
Protocol: as §1, §2
Compound A was tested at a concentration of 1 mg/kg (suspended in a water vehicle). The compound A suspension was intragastrically administrated immediately after induction and then once daily until Day 22 (5 rats per group). For control EAN rats, the same volume of 1% CMC in water was given.

[3] = test system: Experimental Autoimmune Neuritis; test: Immunohistochemistry of inflammatory cell infiltration in EAN sciatic nerves; settings: EAN rats, Day 16, 1 mg/kg, sciatic nerve cross-sections, n=5
[4] = test system: Experimental Autoimmune Neuritis; test: Luxol Fast Blue staining, semiquantitative histological score of EAN sciatic nerves; settings: EAN rats, Day 16, 1 mg/kg in water vehicle, LFB staining of sciatic nerves, scale 0-3
Protocol: as §1
For EAN induction, rats were immunized by subcutaneous injection into both hind footpads with 100 μL of an inoculum containing 100 μg of synthetic neuritogenic P2 57-81 peptide (GeneScript Corporation, Scotch Plains, N.J., USA). […]
The routine Luxol Fast Blue (LFB) staining was applied to show myelin. […] Briefly, four cross-sections from root and middle level of both sides of EAN rats were analyzed. All perivascular areas present in cross-sections were evaluated by two observers unaware of the treatment, and the degree of pathological alteration was graded semiquantitatively on the following scale: 0=normal perivascular area; 1=mild cellular infiltrate adjacent to the vessel; 2=cellular infiltration plus demyelination in immediate proximity to the vessel; and 3=cellular infiltration and demyelination throughout the section. […]

CCC(N)(CO)CCc1ccc(Sc2cccc(OCc3ccccc3)c2)cc1Cl (stereo not drawn) [Compound A, 2-amino-4-[4-(3-benzyloxyphenylthio)-2-chlorophenyl]-2-ethylbutane-1-ol hydrochloride]
mean neurological score [1]: < 0.1 | weight loss [2]: a reduced level of weight loss was observed from Day 13 to 15 | Area of immunoreactivity/area of sciatic nerves (%) for B cells (OX22+) [3]: <0.01% | Area of immunoreactivity/area of sciatic nerves (%) for Macrophages (ED1+) [3]: <0.05% | Area of immunoreactivity/area of sciatic nerves (%) for T cells (W3/13+) [3]: <0.01% | Mean Histological Score [4]: 0.10
